Like-named read-outs stand apart in the source and are kept apart here.
Experiments:
[1] = system: individual lesions of metastatic thyroid cancer
Protocol: Dosimetry and estimation of average lesion uptake. A workflow was established for four-time point measurement of individual lesion radioiodine kinetics to generate area under the curve (AUC) estimation for accurate determination of the radiation dose in Gray (Gy) to individual lesions in patients undergoing RAI therapy for DTC. Positron emission tomography (PET/CT) imaging was performed after oral administration of 222 MBq (6.0 mCi) of ^124I—NaI (3D Imaging, Waco, TX). Whole-body imaging was performed at 4, 24, 48, and 96 hours after oral administration of the radioactivity (FIG. 4). Regions of interest were obtained over all visible lesions >0.5 cm within the body and multiple parameters were obtained for later analysis. The following parameters were captured in a database for each patient and each lesion: size in three dimensions (cm); standardized uptake value (SUV), maximum and average; lean body weight; and activity concentration in microcurie/gram. (FIG. 9). For these patients, the best clearance fitting curve was estimated using a dual exponential equation model comprising lesion uptake and clearance. Prior to integration, clearance fitting was adjusted to replace the decay constant of ^124I with ^131I, the therapy isotope of interest, and then integrated to obtain the AUC. This AUC was multiplied by the equilibrium dose constant for the non-penetrating P-emissions of ^131I, yielding the lesion-absorbed dose in Gy.
Range of ^131I activity to treat a chosen efficacy rate for RAI in mDTC patients. A multi-disciplinary team of nuclear medicine specialists, endocrinologists, medical oncologists, and medical physicists met weekly to make treatment decisions based on the PET data generated, including data from the methods disclosed herein.
(§1) The target radiation dose of 2000 cGy was chosen because doses above this level are often used as the threshold for patients to receive further radioiodine treatment. Based on the PI now available for the AUC, a simple calculation of the relationship between ^124I and ^131I uptake can yield a PI for the dose [dlow−dhigh]. […] Thus, the higher boundary (dhigh) corresponds to the activity to treat 97.5% of the lesions with the given uptake. By varying this boundary, it is possible to select an activity that will target 95%, 90%, or fewer of the lesions.
The full parameter data set consists of: anatomical descriptor, mean size (cm), lesion dose per projected unit millicurie of administered ^131I activity with and without partial volume correction (5), half-life based on a linear slop between day 3 and 5 as well as based on exponential curve fitting, area under the curve based on an integrated curve fit, estimated activity per gram at 48 and 72 hours post-administration, SUV and SUL (based on lean body mass) at 24, 48, and 72 hours post-administration, the administered activity to deliver 2,000 cGy, the radiation dose estimate resulting from the actual therapeutic amount administered to the patient, and the maximum projected dose that could have been achieved had the maximum tolerated activity been administered. This dataset was used as the input to derive a statistical model to predict the radiation dose to lesions.

[2] = median of 21 patients
Protocol: Maximum Tolerated Activity (MTA).
To perform these studies, serial blood samples and total body measurements were conducted to determine β- and photon radiation dose contributions to blood (a proxy for the dose-limiting bone marrow) from a pre-therapy tracer administration of either ^124I or ^131I.

[3] = system: individual lesions of metastatic thyroid cancer; remark: listed apart in the source
Excerpt: Predicting AUC based on a single time point. One goal of this study was to use a single time point to predict the overall area under the radioiodine lesion activity retention curve to estimate the radiation-absorbed dose to lesions without the need for costly additional PET/CT imaging to fully characterize the kinetic behavior. […] For this estimation, the unit is the lesion, and a generalized estimating equation approach is used to estimate the parameters (intercept, slope, and robust variance matrix) accounting for the correlation between lesions in the same patient. Log-transformed values of the uptake and doses are used to ensure the data are normally distributed.
Second, using the estimations for R and the covariance matrix, a prediction interval (PI) is calculated. A PI differs from a confidence interval, as it aims to predict with 95% confidence where future measurements will fall. In our case, if we observed the same value of SUV at 48 h for 100 new lesions, the PI is the range in which 95 of those lesions' AUCs will be found. As difficulties arose when analytically constructing the PI, simulated prediction was used to calculate PIs following the steps detailed in Gelman and Hill, Data Analysis Using Regression and Multilevel/Hierarchical Models (1st Edition, 2007) and summarized in Appendix A.
To validate the accuracy of the prediction, a leave-one-patient-out cross-validation approach was used. For each patient i (i=1, . . . , n), the linear regression parameters are re-estimated using n−1 patients (excluding i), and PIs are calculated for each lesion in patient i based on their measured predictor values.
For those lesions, the actual observed AUC is then compared to the PI. When using 95% PI, it is expected that 95% of the observed values will fall into the corresponding PIs; i.e., 5% will be outside the prediction. In addition, for each left-out patient, an error of prediction is calculated corresponding to the squared difference between the predicted and true AUC values for each lesion. This squared error is average over all the lesions of all the patients to obtain a cross-validated error.
as §1

[4] = system: metastatic thyroid cancer; details: patients with any lesion with predicted dose >2000 cGy
Excerpt: Prediction of activity to deliver 2000 cGy. An operational definition in the methods disclosed herein is that a patient with any lesion with a predicted dose of >2000 cGy would likely respond to treatment. […] A total of 208 lesions are included in the analysis. The prediction is limited for lesions with an SUV >1, as no treatment is planned for lesions with no uptake. Lesions that received no treatment (n=39) were included in the analysis, as prediction is still feasible. […] In (SUV_48_)___.

[5] = system: individual lesions of metastatic thyroid cancer; experiment: ^124I PET/CT imaging of lesion radioiodine uptake; assay type: in vivo, human; details: 48 h after oral ^124I
Excerpt: Population. The present study includes consecutive 21 patients studied under two different RB-approved protocols who underwent imaging. Patients who were considered candidates for RAI treatment of DTC were enrolled. All patients had histologically confirmed, metastatic thyroid cancer.
Dosimetry and estimation of average lesion uptake. […] (FIG. 9).

[131I-].[Na+] [^131I, Iodine-131]
Teff ([1]; patient 1, 13 lesions): 8.02 days
Teff ([1]; patient 2, 18 lesions): 4.28 days
Teff ([1]; patient 3, 14 lesions): 0.45 days
Teff ([1]; patient 4, 12 lesions): 3.16 days
Teff ([1]; patient 5, 10 lesions): 1.48 days
Teff ([1]; patient 6, 16 lesions): 1.59 days
Teff ([1]; patient 7, 23 lesions): 2.48 days
Teff ([1]; patient 8, 6 lesions): 4.41 days
Teff ([1]; patient 9, 8 lesions): 3.03 days
Teff ([1]; patient 10, 4 lesions): 1.26 days
Teff ([1]; patient 11, 11 lesions): 2.98 days
Teff ([1]; patient 12, 3 lesions): 3.8 days
Teff ([1]; patient 13, 13 lesions): 1.55 days
Teff ([1]; patient 14, 5 lesions): 1.74 days
Teff ([1]; patient 15, 17 lesions): 3.79 days
Teff ([1]; patient 16, 6 lesions): 4.77 days
Teff ([1]; patient 17, 6 lesions): 8.04 days
Teff ([1]; patient 18, 12 lesions): 1.69 days
Teff ([1]; patient 19, 17 lesions): 1.55 days
Teff ([1]; patient 20, 13 lesions): 1.74 days
Teff ([1]; patient 21, 10 lesions): 4.63 days
Maximum Tolerated Activity (mCi) [2]: 426 mCi
AUC 95% PI ([3]; SUV at 48 h 2): 1.5-9.1 uCi · hr/g per mCi
AUC Mean Estimate ([3]; SUV at 48 h 2): 4.0 uCi · hr/g per mCi
AUC 95% PI ([3]; SUV at 48 h 4): 3.3-20.3 uCi · hr/g per mCi
AUC Mean Estimate ([3]; SUV at 48 h 4): 8.1 uCi · hr/g per mCi
AUC 95% PI ([3]; SUV at 48 h 6): 4.8-29.2 uCi · hr/g per mCi
AUC Mean Estimate ([3]; SUV at 48 h 6): 12.1 uCi · hr/g per mCi
AUC 95% PI ([3]; SUV at 48 h 8): 6.4-38.8 uCi · hr/g per mCi
AUC Mean Estimate ([3]; SUV at 48 h 8): 16.1 uCi · hr/g per mCi
AUC 95% PI ([3]; SUV at 48 h 10): 8.6-48.4 uCi · hr/g per mCi
AUC Mean Estimate ([3]; SUV at 48 h 10): 20.2 uCi · hr/g per mCi
AUC 95% PI ([3]; SUV at 48 h 15): 11.9-71.0 uCi · hr/g per mCi
AUC Mean Estimate ([3]; SUV at 48 h 15): 30.3 uCi · hr/g per mCi
AUC 95% PI ([3]; SUV at 48 h 20): 16.1-97.1 uCi · hr/g per mCi
AUC Mean Estimate ([3]; SUV at 48 h 20): 40.4 uCi · hr/g per mCi
AUC 95% PI ([3]; SUV at 48 h 30): 24.3-147.4 uCi · hr/g per mCi
AUC Mean Estimate ([3]; SUV at 48 h 30): 60.6 uCi · hr/g per mCi
AUC 95% PI ([3]; SUV at 48 h 50): 40.8-252.9 uCi · hr/g per mCi
AUC Mean Estimate ([3]; SUV at 48 h 50): 101.2 uCi · hr/g per mCi
AUC 95% PI ([3]; SUV at 48 h 100): 82.3-479.6 uCi · hr/g per mCi
AUC Mean Estimate ([3]; SUV at 48 h 100): 202.6 uCi · hr/g per mCi
AUC 95% PI ([3]; SUV at 48 h 200): 164.2-951.2 uCi · hr/g per mCi
AUC Mean Estimate ([3]; SUV at 48 h 200): 405.8 uCi · hr/g per mCi
AUC 95% PI ([3]; SUV at 48 h 300): 257.8-1476.2 uCi · hr/g per mCi
AUC Mean Estimate ([3]; SUV at 48 h 300): 609.2 uCi · hr/g per mCi
probability of complete reduction [4]: 100%
probability of durable partial RECIST response [4]: 75%

[124I-].[Na+] [^124I, ^124I—NaI]
SUV(48 h) ([5]; patient 1, 13 lesions): 8.03
SUV(48 h) ([5]; patient 2, 18 lesions): 80.1
SUV(48 h) ([5]; patient 3, 14 lesions): 3.25
SUV(48 h) ([5]; patient 4, 12 lesions): 7.4
SUV(48 h) ([5]; patient 5, 10 lesions): 1.85
SUV(48 h) ([5]; patient 6, 16 lesions): 27.8
SUV(48 h) ([5]; patient 7, 23 lesions): 35
SUV(48 h) ([5]; patient 8, 6 lesions): 1.73
SUV(48 h) ([5]; patient 9, 8 lesions): 4.35
SUV(48 h) ([5]; patient 10, 4 lesions): 26.2
SUV(48 h) ([5]; patient 11, 11 lesions): 11.30
SUV(48 h) ([5]; patient 12, 3 lesions): 0.7
SUV(48 h) ([5]; patient 13, 13 lesions): 1.30
SUV(48 h) ([5]; patient 14, 5 lesions): 0.90
SUV(48 h) ([5]; patient 15, 17 lesions): 385.3
SUV(48 h) ([5]; patient 16, 6 lesions): 8.30
SUV(48 h) ([5]; patient 17, 6 lesions): 0.80
SUV(48 h) ([5]; patient 18, 12 lesions): 25.1
SUV(48 h) ([5]; patient 19, 17 lesions): 204.6
SUV(48 h) ([5]; patient 20, 13 lesions): 2.30
SUV(48 h) ([5]; patient 21, 10 lesions): 10.8
